Literature values, collected in patent publication US20240358668A1, “METHODS AND CO[…] AM[…] CARD[…] USING (R)-2-AMINO-3-PH[…]” (AXSOME THERAPEUTICS, INC., priority 2021, published 2024).

Settings: prescribing information; or potentially higher; cited from earlier work

In the case of COC(=O)[C@H](c1ccccc1)[C@H]1CCCCN1 [Focalin, dexmethylphenidate], the “increase in blood pressure” value is listed as 2-4 mm Hg.
